# Source: patent US20240238423A9, “TETRAHYDROISOQUINOLINE HETEROBIFUNCTIONAL BCL-XL DEGRADERS” (Treeline Biosciences, Inc., priority 2022, published 2024)
# Like-named read-outs stand apart in the source and are kept apart here.
# Molecular target: T1, Human BCL-XL protein (N-terminal HiBiT tagged BCL-XL in HT1080 cells) (Homo sapiens, UniProt Q07817)
# T1 construct: expressed in transfected cells; host or cells: HT-1080 (ATCC CCL-121), stably transduced with lentivirus pLV-UBC-N-HiBiT-BCL-XL-PGK-puro and selected with puromycin
# T1 sequence (Q07817 whole entry): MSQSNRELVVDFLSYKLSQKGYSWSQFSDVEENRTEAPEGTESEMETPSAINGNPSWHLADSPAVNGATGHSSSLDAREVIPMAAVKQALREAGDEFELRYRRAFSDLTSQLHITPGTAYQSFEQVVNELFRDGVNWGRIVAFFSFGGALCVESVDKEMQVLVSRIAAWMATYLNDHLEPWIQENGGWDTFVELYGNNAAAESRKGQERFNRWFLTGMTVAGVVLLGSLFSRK
# Assay: HiBiT based degradation assay
# Assay type: cell-based
# Conditions: HT1080 cells expressing HiBiT-BCL-XL; for Ymin (24 h) / Ymin (6 h): BCL-XL degradation normalized with DMSO control; for DC50: BCL-XL degradation
# Procedure, shortened: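 HT1080 cells stably transduced by lentivirus with N-terminally HiBiT-tagged human BCL-XL and kept under 1 μg/mL puromycin selection were seeded at three thousand cells per well in 40 μL RPMI 1640 into 384-well plates pre-spotted with compounds across a concentration range. Luminescence was read on a PHERAstar FSX, normalized to DMSO, and fitted with a four-parameter logistic model.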
Ymin (24 h),"DC50 (24 h, read-out: EC50 (24 h))",Ymin (6 h),"DC50 (6 h, read-out: EC50 (6 h))",Compound
A (Ymin < 50%),< 100 nM,,,"Cc1cc2c(C3CCC(=O)NC3=O)nn(C)c2cc1N1CCN(CCCC[C@H]2CC[C@H](Oc3cccc(-c4ccc(N5CCc6cccc(C(=O)Nc7nc8ccccc8s7)c6C5)nc4C(=O)O)c3C)CC2)CC1 (some centres unmarked) [Compound 325a, 6-(8-(benzo[d]thiazol-2-ylcarbamoyl)-3,4-dihydroisoquinolin-2(1H)-yl)-3-(3-(((1s,4r)-4-(4-(4-(3-(2,6-dioxopiperidin-3-yl)-1,5-dimethyl-1H-indazol-6-yl)piperazin-1-yl)butyl)cyclohexyl)oxy)-2-methylphenyl)picolinic acid]"
A (Ymin < 50%),< 100 nM,,,"Cc1c(OCC[C@H]2CCC3(CCN(CC(=O)Nc4ccc5c(C6CCC(=O)NC6=O)nn(C)c5c4)CC3)C2)cccc1-c1ccc(N2CCc3cccc(C(=O)Nc4nc5ccccc5s4)c3C2)nc1C(=O)O (stereo in doubt) [Compound 272a, 6-(8-(benzo[d]thiazol-2-ylcarbamoyl)-3,4-dihydroisoquinolin-2(1H)-yl)-3-(3-(2-((2S)-8-(2-((3-(2,6-dioxopiperidin-3-yl)-1-methyl-1H-indazol-6-yl)amino)-2-oxoethyl)-8-azaspiro[4.5]decan-2-yl)ethoxy)-2-methylphenyl)picolinic acid]"
A (Ymin < 50%),< 100 nM,,,"Cc1c(O[C@H]2CC[C@H](CCCCN3CCN(c4ccc5c(C6CCC(=O)NC6=O)nn(C)c5c4)C(C)(C)C3)CC2)cccc1-c1ccc(N2CCc3cccc(C(=O)Nc4nc5ccccc5s4)c3C2)nc1C(=O)O (some centres unmarked) [Compound 322a, 6-(8-(benzo[d]thiazol-2-ylcarbamoyl)-3,4-dihydroisoquinolin-2(1H)-yl)-3-(3-(((1s,4r)-4-(4-(4-(3-(2,6-dioxopiperidin-3-yl)-1-methyl-1H-indazol-6-yl)-3,3-dimethylpiperazin-1-yl)butyl)cyclohexyl)oxy)-2-methylphenyl)picolinic acid]"
A (Ymin < 50%),< 100 nM,,,"Cc1c(O[C@H]2CC[C@H](C[C@@H](C)CCN3CCN(c4ccc5c(C6CCC(=O)NC6=O)nn(C)c5c4)CC3)CC2)cccc1-c1ccc(N2CCc3cccc(C(=O)Nc4nc5ccccc5s4)c3C2)nc1C(=O)O (single isomer, unassigned) [Compound 307b]"

# The next lines start with the molecule.
Compound,Ymin (24 h),"DC50 (24 h, read-out: EC50 (24 h))",Ymin (6 h),"DC50 (6 h, read-out: EC50 (6 h))"
"Cc1c(OCC(F)(F)CC2CCN(CC(=O)Nc3ccc4c(C5CCC(=O)NC5=O)nn(C)c4c3)CC2)cccc1-c1ccc(N2CCc3cccc(C(=O)Nc4nc5ccccc5s4)c3C2)nc1C(=O)O (centres unmarked) [Compound 181, 6-[8-(1,3-benzothiazol-2-ylcarbamoyl)-3,4-dihydro-1H-isoquinolin-2-yl]-3-[3-[3-[1-[2-[[3-(2,6-dioxo-3-piperidyl)-1-methyl-indazol-6-yl]amino]-2-oxo-ethyl]-4-piperidyl]-2,2-difluoro-propoxy]-2-methyl-phenyl]pyridine-2-carboxylic acid]",A (Ymin < 50%),< 100 nM,,
"Cn1nc(C2CCC(=O)NC2=O)c2ccc(NC(=O)CN3CCC(CCCOc4cccc(-c5ccc(N6CCc7cccc(C(=O)Nc8nc9ccccc9s8)c7C6)nc5C(=O)O)c4C(F)(F)F)CC3)cc21 (centres unmarked) [Compound 313, 6-[8-(1,3-benzothiazol-2-ylcarbamoyl)-3,4-dihydro-1H-isoquinolin-2-yl]-3-[3-[3-[1-[2-[[3-(2,6-dioxo-3-piperidyl)-1-methyl-indazol-6-yl]amino]-2-oxo-ethyl]-4-piperidyl]propoxy]-2-(trifluoromethyl)phenyl]pyridine-2-carboxylic acid]",A (Ymin < 50%),< 100 nM,,
"Cc1c(Oc2ccccc2CCC(=O)Nc2ccc(C3CCC(=O)NC3=O)cc2)cccc1-c1ccc(N2CCc3cccc(C(=O)Nc4nc5ccccc5s4)c3C2)nc1C(=O)O (centres unmarked) [Compound 134, 6-(8-(benzo[d]thiazol-2-ylcarbamoyl)-3,4-dihydroisoquinolin-2(1H)-yl)-3-(3-(2-(3-((4-(2,6-dioxopiperidin-3-yl)phenyl)amino)-3-oxopropyl)phenoxy)-2-methylphenyl)picolinic acid]",B (50% ≤ Ymin < 70%),< 100 nM,B (50% ≤ Ymin < 70%),100 to 1000 nM
"Cc1c(OCCCCC2CCN(CC(=O)Nc3ccc4c(C5CCC(=O)NC5=O)nn(C)c4c3)CC2)cccc1-c1ccc(N2CCc3cccc(C(=O)Nc4nc5ccccc5s4)c3C2)nc1C(=O)O (centres unmarked) [Compound 203, 6-(8-(benzo[d]thiazol-2-ylcarbamoyl)-3,4-dihydroisoquinolin-2(1H)-yl)-3-(3-(4-(1-(2-((3-(2,6-dioxopiperidin-3-yl)-1-methyl-1H-indazol-6-yl)amino)-2-oxoethyl)piperidin-4-yl)butoxy)-2-methylphenyl)picolinic acid]",A (Ymin < 50%),< 100 nM,B (50% ≤ Ymin < 70%),< 100 nM
"Cc1c(OCCCC2CCN(CCN3CCN(c4cccc5c(C6CCC(=O)NC6=O)nn(C)c45)CC3)CC2)cccc1-c1ccc(N2CCc3cccc(C(=O)Nc4nc5ccccc5s4)c3C2)nc1C(=O)O (centres unmarked) [Compound 230, 6-(8-(benzo[d]thiazol-2-ylcarbamoyl)-3,4-dihydroisoquinolin-2(1H)-yl)-3-(3-(3-(1-(2-(4-(3-(2,6-dioxopiperidin-3-yl)-1-methyl-1H-indazol-7-yl)piperazin-1-yl)ethyl)piperidin-4-yl)propoxy)-2-methylphenyl)picolinic acid]",A (Ymin < 50%),< 100 nM,,
"Cc1c(OCCCC2CCN([C@@H](C)C(=O)Nc3cccc4c(C5CCC(=O)NC5=O)nn(C)c34)CC2)cccc1-c1ccc(N2CCc3cccc(C(=O)Nc4nc5ccccc5s4)c3C2)nc1C(=O)O (stereo partly drawn) [Compound 216a, 6-(8-(benzo[d]thiazol-2-ylcarbamoyl)-3,4-dihydroisoquinolin-2(1H)-yl)-3-(3-(3-(1-((2S)-1-((3-(2,6-dioxopiperidin-3-yl)-1-methyl-1H-indazol-7-yl)amino)-1-oxopropan-2-yl)piperidin-4-yl)propoxy)-2-methylphenyl)picolinic acid]",B (50% ≤ Ymin < 70%),< 100 nM,,
"Cc1c(OCCCN2CCN(CC(=O)N3CCN(c4ccc5c(C6CCC(=O)NC6=O)nn(C)c5c4)CC3)CC2)cccc1-c1ccc(N2CCc3cccc(C(=O)Nc4nc5ccccc5s4)c3C2)nc1C(=O)O (centres unmarked) [Compound 140, 6-(8-(Benzo[d]thiazol-2-ylcarbamoyl)-3,4-dihydroisoquinolin-2(1H)-yl)-3-(3-(3-(4-(2-(4-(3-(2,6-dioxopiperidin-3-yl)-1-methyl-1H-indazol-6-yl)piperazin-1-yl)-2-oxoethyl)piperazin-1-yl)propoxy)-2-methylphenyl)picolinic acid]",A (Ymin < 50%),< 100 nM,A (Ymin < 50%),< 100 nM
"Cc1c(OCCCC2CCN(CCCc3ccc4c(C5CCC(=O)NC5=O)nn(C)c4c3)CC2)cccc1-c1ccc(N2CCc3cccc(C(=O)Nc4nc5ccccc5s4)c3C2)nc1C(=O)O (centres unmarked) [Compound 305, 6-(8-(benzo[d]thiazol-2-ylcarbamoyl)-3,4-dihydroisoquinolin-2(1H)-yl)-3-(3-(3-(1-(3-(3-(2,6-dioxopiperidin-3-yl)-1-methyl-1H-indazol-6-yl)propyl)piperidin-4-yl)propoxy)-2-methylphenyl)picolinic acid]",A (Ymin < 50%),< 100 nM,,
"Cc1c(Oc2ccc(CCN3CCN(c4cccc5c(C6CCC(=O)NC6=O)nn(C)c45)CC3)cc2)cccc1-c1ccc(N2CCc3cccc(C(=O)Nc4nc5ccccc5s4)c3C2)nc1C(=O)O (centres unmarked) [Compound 241, 6-[8-(1,3-benzothiazol-2-ylcarbamoyl)-3,4-dihydro-1H-isoquinolin-2-yl]-3-[3-[4-[2-[4-[3-(2,6-dioxo-3-piperidyl)-1-methyl-indazol-7-yl]piperazin-1-yl]ethyl]phenoxy]-2-methyl-phenyl]pyridine-2-carboxylic acid]",B (50% ≤ Ymin < 70%),< 100 nM,,
"Cc1c(OCC(F)(F)CN2C[C@@H](C)N(CC(=O)N3CCN(c4ccc5c(C6CCC(=O)NC6=O)nn(C)c5c4)CC3)[C@@H](C)C2)cccc1-c1ccc(N2CCc3cccc(C(=O)Nc4nc5ccccc5s4)c3C2)nc1C(=O)O (stereo partly drawn) [Compound 185a, 6-[8-(1,3-benzothiazol-2-ylcarbamoyl)-3,4-dihydro-1H-isoquinolin-2-yl]-3-[3-[3-[(3R,5S)-4-[2-[4-[3-(2,6-dioxo-3-piperidyl)-1-methyl-indazol-6-yl]piperazin-1-yl]-2-oxo-ethyl]-3,5-dimethyl-piperazin-1-yl]-2,2-difluoro-propoxy]-2-methyl-phenyl]pyridine-2-carboxylic acid]",A (Ymin < 50%),< 100 nM,,
"Cc1c(OCCCN2CCC(CC(=O)Nc3cccc4c(C5CCC(=O)NC5=O)nn(C)c34)CC2)cccc1-c1ccc(N2CCc3cccc(C(=O)Nc4nc5ccccc5s4)c3C2)nc1C(=O)O (centres unmarked) [Compound 122, 6-[8-(1,3-benzothiazol-2-ylcarbamoyl)-3,4-dihydro-1H-isoquinolin-2-yl]-3-[3-[3-[4-[2-[[3-(2,6-dioxo-3-piperidyl)-1-methyl-indazol-7-yl]amino]-2-oxo-ethyl]-1-piperidyl]propoxy]-2-methyl-phenyl]pyridine-2-carboxylic acid]",B (50% ≤ Ymin < 70%),< 100 nM,B (50% ≤ Ymin < 70%),< 100 nM
